In paper PMC12508057, “Discovery of ETI41 and ETI60: novel selective endosomal Toll-like receptor inhibitors for the treatment of autoimmune diseases” (Experimental & Molecular Medicine, 2025):
Where two headings read alike, the source gives them in different places.

Assays:
TLR9 = experiment: FACS analysis of FAM-labeled CpG-ODN uptake and retention; assay type: cell-based; conditions: for Endocytosis of CpG ODNs: 30-min treatment with labeled CpG ODNs
Method: RAW 264.7 cells were seeded into 60-mm dishes at 2 × 10^6 cells per dish. After 30 min of treatment with ETI41 or ETI60, cells were incubated with 1 μM of 3’-FAM-labeled ODN 2395 (Bioneer Inc.) for 30 min. Fluorescence intensity was measured using a NovoCyte Flow Cytometer (Agilent Technologies) and analyzed using NovoExpress software.
Fig. 3 Binding mechanism of ETI41 and ETI60 with TLR7 and TLR9. a ETI41 and ETI60 bind to the extracellular domain of TLR7. b Detailed intermolecular interactions ofETI41 and ETI60 are shown with the key residues of TLR7. c ETI41 and ETI60 bind to the extracellular domain of TLR9. d Intermolecular interactions of ETI41 and ETI60 with the key residues of TLR9. The asterisk indicates chain A of TLR7 and TLR9. ETI41 and ETI60 are depicted in ball-and-stick models. Bonds are represented by lines, with distances measured in ångström (Å) units. […] Data presented are from three independent experiments (n = 3), and statistical differences between the induced case and other cases were analyzed and verified using a one-tailed Student’s t-test (*P < 0.05, **P < 0.01, ***P < 0.001). TEXT PRINTED IN THE PICTURE: (f) ETI41: ODN-Fm (30min): Q3-1 0.00%; ODN-Fm (30min): Q3-2 0.00%; ODN-Fm (30min): Q3-3 10.75%; ODN-Fm (30min): Q3-4 89.25%; ODN-Fm (30min) → Washing → Incubation (1h): Q3-1 0.00%; ODN-Fm (30min) → Washing → Incubation (1h): Q3-2 0.00%; ODN-Fm (30min) → Washing → Incubation (1h): Q3-3 40.96%; ODN-Fm (30min) → Washing → Incubation (1h): Q3-4 59.04% | (f) ETI60: ODN-Fm (30min): Q3-1 0.00%; ODN-Fm (30min): Q3-2 0.00%; ODN-Fm (30min): Q3-3 12.80%; ODN-Fm (30min): Q3-4 87.20%; ODN-Fm (30min) → Washing → Incubation (1h): Q3-1 0.00%; ODN-Fm (30min) → Washing → Incubation (1h): Q3-2 0.00%; ODN-Fm (30min) → Washing → Incubation (1h): Q3-3 56.37%; ODN-Fm (30min) → Washing → Incubation (1h): Q3-4 43.63% DOUBTS OF THE COPYIST ABOUT THIS PICTURE: Panel f, very small print: the digits 3, 5, 6, 8 and 9 cannot be told apart with certainty in any quadrant percentage. / ETI41, ODN-Fm (30min): Q3-3 10.75% and Q3-4 89.25% are best readings / ETI60, ODN-Fm (30min): Q3-3 12.80% and Q3-4 87.20% are best readings / ETI41, Washing/Incubation (1h): Q3-3 40.96% and Q3-4 59.04% are best readings / ETI60, Washing/Incubation (1h): Q3-3 56.37% and Q3-4 43.63% are best readings / Panel f: the control plots ('Con' and '-') also print quadrant percentages. They are left out because they are not substance results.
FACS analysis further validated the binding of ETI41 and ETI60. Unmethylated CpG ODNs, acting as ligands for TLR9, were fluorescently labeled, and their cellular penetration was monitored.

human TLR7 = molecular target: T1, human TLR7 (Homo sapiens, UniProt Q9NYK1); experiment: SPR binding to TLR7; conditions: for SPR binding to TLR7: neutral pH 7.4 (early endosome)
T1 construct: Fc; purchased R&D Systems
T1 sequence (Q9NYK1 27-839 limits assumed): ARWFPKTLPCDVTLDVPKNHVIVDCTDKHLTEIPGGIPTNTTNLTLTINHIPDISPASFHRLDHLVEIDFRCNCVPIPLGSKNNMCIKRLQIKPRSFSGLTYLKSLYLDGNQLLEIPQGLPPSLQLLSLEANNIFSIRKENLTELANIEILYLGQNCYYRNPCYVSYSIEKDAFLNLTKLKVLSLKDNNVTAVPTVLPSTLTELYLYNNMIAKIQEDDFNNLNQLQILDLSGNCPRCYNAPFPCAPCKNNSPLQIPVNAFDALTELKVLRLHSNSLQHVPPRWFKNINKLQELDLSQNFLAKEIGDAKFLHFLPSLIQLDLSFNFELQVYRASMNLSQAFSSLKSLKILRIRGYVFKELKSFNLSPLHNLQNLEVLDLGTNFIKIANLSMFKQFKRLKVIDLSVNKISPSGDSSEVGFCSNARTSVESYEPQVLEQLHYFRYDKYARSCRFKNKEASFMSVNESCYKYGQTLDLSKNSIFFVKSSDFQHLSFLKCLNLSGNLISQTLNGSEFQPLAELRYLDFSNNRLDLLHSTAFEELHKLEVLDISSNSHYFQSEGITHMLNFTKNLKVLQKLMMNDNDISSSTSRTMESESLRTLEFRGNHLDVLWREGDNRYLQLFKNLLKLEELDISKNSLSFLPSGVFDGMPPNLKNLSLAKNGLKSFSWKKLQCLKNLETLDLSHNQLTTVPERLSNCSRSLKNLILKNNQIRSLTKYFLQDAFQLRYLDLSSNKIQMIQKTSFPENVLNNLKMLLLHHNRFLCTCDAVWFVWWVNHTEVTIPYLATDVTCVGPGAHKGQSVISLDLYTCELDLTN
Method: Surface plasmon resonance (SPR) analysis was conducted using an SR7500DC SPR System (Reichert) with a CMDH chip for human TLR7 and murine TLR9 (R&D Systems) and a Biacore T200 platform (Cytiva) with a CM5 chip for TLR9–ODN binding. The running buffer contained 0.5% DMSO and phosphate-buffered saline, and 50 mM NaOH was used for regeneration. ETI series compounds were serially diluted from 500 μM and tested for binding affinity. Binding curves were analyzed using Scrubber2 and Biacore T200 evaluation softwares. The dissociation constants (KD) were calculated as KD = kd/ka.
SPR confirmed the binding mechanisms of ETI41 and ETI60 with TLR7 and TLR9, respectively, under three conditions: (a) early endosome (pH 7.4), (b) late endosome without CpG (pH 5.5) and (c) late endosome with CpG (pH 5.5). (a) Both ETI41 and ETI60 were measured for parameters indicating binding affinity, including the KD value presented in Table 3, and were further analyzed under conditions (b) and (c), depending on the presence or absence of ligand, to explain the binding mechanism occurring in TLR9.

Compound: COc1ccc2c3c(N)c4c(nc3n(CCCN(C)C)c2c1)CCCC4 [ETI60]
- Endocytosis of CpG ODNs (TLR9): did not interfere with endocytosis
- Fluorescence intensity of labeled CpG ODN after washing (TLR9): reduction in fluorescence intensity
- kd (human TLR7; Fc-TLR7, pH 7.4): 0.124 s⁻¹
- Kd (human TLR7; Fc-TLR7, pH 7.4, read-out: KD): 6 mM
- kon (human TLR7; Fc-TLR7, pH 7.4, read-out: ka): 20 M⁻¹ s⁻¹
- SPR binding to TLR7 (human TLR7): clear binding affinity

Compound: Cc1cc2c(N)c3c(nc2n1CCCN(C)C)CCCCCC3 [ETI41]
- Endocytosis of CpG ODNs (TLR9): did not interfere with endocytosis
- Fluorescence intensity of labeled CpG ODN after washing (TLR9): reduction in fluorescence intensity
- Kd (human TLR7): 0.54 mM
- kd (human TLR7; Fc-TLR7, pH 7.4): 0.21 s⁻¹
- SPR binding to TLR7 (human TLR7): clear binding affinity
- kon (human TLR7; pH 7.4, read-out: ka): 400 M⁻¹ s⁻¹
